Here are results for 28 compounds from patent publication US20240383908A1, “SYNTHESIS AND APPLICATION OF PHOSPHATASE DEGRADER” (HINOVA PHARMACEUTICALS INC., priority 2021, published 2024).

What all share (assay type): cell-based
Experiment [1] concerns the target T1, SHP2 protein (Homo sapiens, UniProt Q06124).
T1 sequence (Q06124 1-593): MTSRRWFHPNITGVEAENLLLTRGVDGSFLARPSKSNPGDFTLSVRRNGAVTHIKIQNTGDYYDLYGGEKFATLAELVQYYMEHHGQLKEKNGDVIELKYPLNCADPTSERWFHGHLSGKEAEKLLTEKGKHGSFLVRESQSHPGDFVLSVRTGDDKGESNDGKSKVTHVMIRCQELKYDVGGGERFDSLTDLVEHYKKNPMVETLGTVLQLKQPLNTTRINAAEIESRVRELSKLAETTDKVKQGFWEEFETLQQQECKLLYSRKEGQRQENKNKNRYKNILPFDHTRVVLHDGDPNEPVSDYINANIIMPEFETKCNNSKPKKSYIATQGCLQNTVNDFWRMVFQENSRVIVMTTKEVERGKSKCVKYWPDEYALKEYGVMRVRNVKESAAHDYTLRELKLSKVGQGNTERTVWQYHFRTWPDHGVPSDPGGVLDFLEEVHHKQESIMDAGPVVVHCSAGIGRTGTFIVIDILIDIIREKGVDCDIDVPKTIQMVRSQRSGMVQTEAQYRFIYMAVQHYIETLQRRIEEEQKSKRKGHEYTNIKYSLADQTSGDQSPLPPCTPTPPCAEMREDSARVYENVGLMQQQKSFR
Kind of experiment: Degradation activity on SHP2 protein in NCI-H358 cells (Western blot, DC50). Also noted: endogenous in cells. Particulars: read-out: Degradation activity for differenct cell lines NCI-H358 (DC50). Put shortly:
(§1)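 Cells were treated 24 h at 37 °C with compound (0.1–100 nM final, 0.1% DMSO). SHP2 was measured by Western blot with GAPDH as loading control, densitometry normalized to DMSO (100%). DC50, the concentration giving 50% degradation, came from a dose-response fit.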
For orientation: Immunoblotting shows a protein as a band on a membrane.

The target in experiment [2] is T1, SHP2 protein. Kind of experiment: Degradation activity on SHP2 protein in MV-411 cells (Western blot, DC50). More on the design: endogenous in cells. The following applies: MV411 cells, 24 hours, read-out: Degradation activity for differenct cell lines MV411 (DC50). Put shortly: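 MV-411 cells (1×10^6 cells/well, IMDM + 10% FBS) were treated 24 h with compound at 0.1-100 nM final, 0.1% DMSO, duplicates. SHP2 measured by Western blot against GAPDH, band density normalised to DMSO control; DC50 from dose-response fit.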

Experiment [3] concerns the target T1, SHP2 protein. As to the kind of experiment: Degradation activity on SHP2 protein in MIA Paca-2 cells (Western blot, DC50). Also noted: endogenous in cells; host or cells: MIA Paca-2 cells. Particulars: read-out: Degradation activity for differenct cell lines MIA Paca-2 (DC50). In a few lines: as §1

A word on the DC50: it is the midpoint of the concentration-degradation curve.

On to `Cc1ncsc1-c1ccc([C@H](C)NC(=O)[C@@H]2C[C@@H](O)CN2C(=O)[C@@H](NC(=O)CCCCCN2CCC3(C2)CN(CCC(=O)Nc2cccc(Sc4cnc(N5CCC(C)(N)CC5)cn4)c2)C3)C(C)(C)C)cc1` [Compound 46], for which the DC50 was over 1000 nM in experiment [1] and under 100 nM in experiment [2].

On to `Cc1ncsc1-c1ccc([C@H](C)NC(=O)[C@@H]2C[C@@H](O)CN2C(=O)[C@@H](NC(=O)c2cnc(N3CCC4(CN(CCC(=O)Nc5cccc(Sc6cnc(N7CCC(C)(N)CC7)cn6)c5)C4)C3)nc2)C(C)(C)C)cc1` [Compound 64], for which the DC50 was 100 to 1000 nM in experiment [1], under 100 nM in experiment [2] and 100 to 1000 nM in experiment [3].

For `Cc1ncsc1-c1ccc([C@H](C)NC(=O)[C@@H]2C[C@@H](O)CN2C(=O)[C@@H](NC(=O)c2cnc(N3CC(OCCCCCCCCC(=O)Nc4ccc(Sc5cnc(N6CCC(C)(N)CC6)cn5)cc4)C3)nc2)C(C)(C)C)cc1` [Compound 75], the DC50 in experiment [1], in experiment [2] and in experiment [3] was under 100 nM in each case.

With `Cc1ncsc1-c1ccc([C@H](C)NC(=O)[C@@H]2C[C@@H](O)CN2C(=O)[C@@H](NC(=O)c2cnc(N3CCC(OCCCCCCCC(=O)Nc4cccc(Sc5cnc(N6CCC(C)(N)CC6)cn5)c4)CC3)nc2)C(C)(C)C)cc1` [Compound 78], the DC50 in experiment [1], in experiment [2] and in experiment [3] was under 100 nM each time.

On to `CC1(N)CCN(c2cnc(Sc3cccc(NC(=O)CCCCCCCOC4CCN(c5ncc(C(=O)NCc6ccc7c(c6)CN(C6CCC(=O)NC6=O)C7=O)cn5)CC4)c3)cn2)CC1` (centres unmarked) [Compound 79], for which the DC50 in experiment [1] is under 100 nM; in experiment [2] it was under 100 nM; in experiment [3], 100 to 1000 nM.

`Cc1ncsc1-c1ccc([C@H](C)NC(=O)[C@@H]2C[C@@H](O)CN2C(=O)[C@@H](NC(=O)c2cnc(N3CC(OCCCCCCC(=O)Nc4cccc(Sc5cnc(N6CCC(C)(N)CC6)cn5)c4)C3)nc2)C(C)(C)C)cc1` [Compound 86]: the DC50 in experiment [1], in experiment [2] and in experiment [3] was under 100 nM in each case.

For `CC1(N)CCN(c2cnc(Sc3cccc(NC(=O)CCCCCCCN4CC5CN(c6ccc(C(=O)NCc7ccc8c(c7)CN(C7CCC(=O)NC7=O)C8=O)nn6)CC5C4)c3)cn2)CC1` (centres unmarked) [Compound 100], the DC50 in experiment [1], in experiment [2] and in experiment [3] was under 100 nM each time.

`CC1(N)CCN(c2cnc(Sc3cccc(NC(=O)CCCCCOC4CC5(CCN(c6ccc(C(=O)NCc7ccc8c(c7)CN(C7CCC(=O)NC7=O)C8=O)cc6F)CC5)C4)c3)cn2)CC1` (centres unmarked) [Compound 176]: the DC50 in experiment [1] is 100 to 1000 nM; in experiment [2], under 100 nM; in experiment [3], under 100 nM.

For `CC1(N)CCN(c2cnc(Sc3cccc(NC(=O)CCCCCCN4CC5(CCN(c6ccc(C(=O)NCc7ccc8c(c7)CN(C7CCC(=O)NC7=O)C8=O)nc6)C5)C4)c3)cn2)CC1` (centres unmarked) [Compound 186], the DC50 in experiment [1], in experiment [2] and in experiment [3] was under 100 nM in each case.

With `CC1(N)CCN(c2cnc(Sc3cccc(NC(=O)CCCCCCCCN4CC=C(c5ccc(C(=O)NCc6ccc7c(c6)CN(C6CCC(=O)NC6=O)C7=O)nn5)CC4)c3)cn2)CC1` (centres unmarked) [Compound 188], the DC50 in experiment [1], in experiment [2] and in experiment [3] was under 100 nM in each case.

For `CC1(N)CCN(c2cnc(Sc3cccc(NC(=O)c4ccc(N5CCC(N6CC=C(c7cnc(C(=O)NCc8ccc9c(c8)CN(C8CCC(=O)NC8=O)C9=O)cc7Cl)CC6)CC5)cc4)c3)cn2)CC1` (centres unmarked) [Compound 399], the DC50 in experiment [1] and in experiment [3] was under 100 nM in each case.

Regarding `CC1(N)CCN(c2cnc(Sc3cccc(NC(=O)c4ccc(N5CCC(N6CC=C(c7cnc(C(=O)NCc8ccc9c(c8)CN(C8CCC(=O)NC8=O)C9=O)c(Cl)c7)CC6)CC5)cc4)c3)cn2)CC1` (centres unmarked) [Compound 400], the DC50 in experiment [1] and in experiment [3] was under 100 nM throughout.

As for `CC1(N)CCN(c2cnc(Sc3cccc(NC(=O)c4ccc(N5CCC(N6CC=C(c7ccc(C(=O)NCc8ccc9c(c8)CN(C8CCC(=O)NC8=O)C9=O)nc7)CC6)CC5)cc4F)c3)cn2)CC1` (centres unmarked) [Compound 405], the DC50 in experiment [1] was under 100 nM; in experiment [3], 100 to 1000 nM.

As for `CC1(N)CCN(c2cnc(Sc3cccc(NC(=O)c4ccc(-c5ccc(N6CCC7(CC6)CC7C(=O)NCc6ccc7c(c6)CN(C6CCC(=O)NC6=O)C7=O)cc5)cc4)c3)cn2)CC1` (centres unmarked) [Compound 406], the half-maximal degradation concentration (DC50) in experiment [1] and in experiment [3] was over 1000 nM in each case.

Regarding `CC1(N)CCN(c2cnc(Sc3cccc(NC(=O)c4ccc(N5CCC(N6CC=C(c7ccc(C(=O)NCc8ccc9c(c8)CN(C8CCC(=O)NC8=O)C9=O)nc7)CC6)C(F)C5)nc4)c3)cn2)CC1` (centres unmarked) [Compound 409], the DC50 in experiment [1] and in experiment [3] was under 100 nM each time.

For `CC1(N)CCN(c2cnc(Sc3cccc(NC(=O)c4ccc(N5CCC(N6CC=C(c7ccc(C(=O)NCc8ccc9c(c8)CN(C8CCC(=O)NC8=O)C9=O)nc7)C6)CC5)c(F)c4)c3)cn2)CC1` (centres unmarked) [Compound 410], the DC50 in experiment [1] and in experiment [3] was under 100 nM throughout.

`CC1(N)CCN(c2cnc(Sc3cccc(NC(=O)c4ccc(N5CCC(N6CC=C(c7cnc(C(=O)NCc8ccc9c(c8)CN(C8CCC(=O)NC8=O)C9=O)cc7Cl)CC6)CC5)c(F)c4)c3)cn2)CC1` (centres unmarked) [Compound 418]: the DC50 in experiment [1] and in experiment [3] was under 100 nM in each case.

On to `CC1(N)CCN(c2cnc(Sc3cccc(NC(=O)c4ccc(N5CCC(N6CC=C(c7cnc(C(=O)NCc8ccc9c(c8)CN(C8CCC(=O)NC8=O)C9=O)cc7Cl)CC6)CC5)nc4)c3)cn2)CC1` (centres unmarked) [Compound 419], for which the DC50 in experiment [1] and in experiment [3] was under 100 nM in each case.

Turning to `Cc1cc(C(=O)Nc2cccc(Sc3cnc(N4CCC(C)(N)CC4)cn3)c2)ccc1N1CCC(N2CC=C(c3cnc(C(=O)NCc4ccc5c(c4)CN(C4CCC(=O)NC4=O)C5=O)c(F)c3)CC2)CC1` (centres unmarked) [Compound 439], the DC50 in experiment [1] and in experiment [3] was under 100 nM throughout.

For `CC1(N)CCN(c2cnc(Sc3cccc(NC(=O)c4ccc(N5CCC(N6CC=C(c7ccc(C(=O)NCc8ccc9c(c8)CN(C8CCC(=O)NC8=O)C9=O)nc7Cl)CC6)CC5)c(F)c4)c3)cn2)CC1` (centres unmarked) [Compound 442], the DC50 in experiment [1] and in experiment [3] was 100 to 1000 nM in each case.

Turning to `Cc1cc(N2CCC(N3CC=C(c4cnc(C(=O)NCc5ccc6c(c5)CN(C5CCC(=O)NC5=O)C6=O)c(Cl)c4)CC3)CC2)ccc1C(=O)Nc1cccc(Sc2cnc(N3CCC(C)(N)CC3)cn2)c1` (centres unmarked) [Compound 443], the DC50 was under 100 nM in experiment [1] and 100 to 1000 nM in experiment [3].

Turning to `CC1(N)CCN(c2cnc(Sc3cccc(NC(=O)c4ccc(N5CCC(N6CC=C(c7ccc(C(=O)NCc8ccc9c(c8)CN(C8CCC(=O)NC8=O)C9=O)cc7)CC6)CC5)c(F)c4)c3)cn2)CC1` (centres unmarked) [Compound 445], the DC50 in experiment [1] was under 100 nM; in experiment [3], 100 to 1000 nM.

Take `CC1(N)CCN(c2cnc(Sc3cccc(NC(=O)c4ccc(N5CCC(N6CC=C(c7ccc(C(=O)NCc8ccc9c(c8)CN(C8CCC(=O)NC8=O)C9=O)cc7)CC6)CC5)cc4)c3)cn2)CC1` (centres unmarked) [Compound 446]: the DC50 in experiment [1] and in experiment [3] was under 100 nM throughout.

For `CC1(N)CCN(c2cnc(Sc3cccc(NC(=O)c4ccc(N5CCC(N6CCN(c7ccc(C(=O)NCc8ccc9c(c8)CN(C8CCC(=O)NC8=O)C9=O)nc7)CC6)CC5)cn4)c3)cn2)CC1` (centres unmarked) [Compound 448], the DC50 in experiment [1] and in experiment [3] was under 100 nM throughout.

In the case of `CC1(N)CCN(c2cnc(Sc3cccc(NC(=O)c4ncc(N5CCC(N6CCN(c7ccc(C(=O)NCc8ccc9c(c8)CN(C8CCC(=O)NC8=O)C9=O)nc7)CC6)CC5)cn4)c3)cn2)CC1` (centres unmarked) [Compound 451], the DC50 in experiment [1] and in experiment [3] was under 100 nM each time.

Turning to `Cc1cc(N2CCC(N3CC=C(c4cnc(C(=O)NCc5ccc6c(c5)CN(C5CCC(=O)NC5=O)C6=O)cc4C)CC3)CC2)ccc1C(=O)Nc1cccc(Sc2cnc(N3CCC(C)(N)CC3)cn2)c1` (centres unmarked) [Compound 457], the DC50 in experiment [1] and in experiment [3] was under 100 nM in each case.

On to `Cc1cc(C(=O)NCc2ccc3c(c2)CN(C2CCC(=O)NC2=O)C3=O)ncc1C1=CCN(C2CCN(c3ccc(C(=O)Nc4cccc(Sc5cnc(N6CCC7(CC6)CO[C@@H](C)[C@H]7N)cn5)c4)cc3F)CC2)CC1` (some centres unmarked) [Compound 465], for which the DC50 in experiment [1] and in experiment [3] was under 100 nM in each case.

In the case of `CC1(N)CCN(c2cnc(Sc3cccc(NC(=O)c4ccc(N5CCC(N6CC=C(c7ccc(C(=O)NCc8ccc9c(c8)CN(C8CCC(=O)NC8=O)C9=O)nc7F)CC6)CC5)c(F)c4)c3)cn2)CC1` (centres unmarked) [Compound 467], the DC50 was 100 to 1000 nM in experiment [1] and under 100 nM in experiment [3].
